Results taken from patent publication EP3156398A1, “AGONISTS OF THE CHEMOKINE RECEPTOR CXCR3” (Friedrich-Alexander-Universität Erlangen-Nürnberg, priority 2015, dated 2017).

How the values were obtained:
human CXCR3 (isoform 1) = target: T1, human CXCR3 (isoform 1) (Homo sapiens, UniProt P49682); experiment: [125I]CXCL11 radioligand displacement assay; format: binding
T1 construct: expressed in transfected cells; host or cells: COS-7 cells, transient (pcDNA3.1+ vector, calcium phosphate)
T1 sequence (P49682 1-368): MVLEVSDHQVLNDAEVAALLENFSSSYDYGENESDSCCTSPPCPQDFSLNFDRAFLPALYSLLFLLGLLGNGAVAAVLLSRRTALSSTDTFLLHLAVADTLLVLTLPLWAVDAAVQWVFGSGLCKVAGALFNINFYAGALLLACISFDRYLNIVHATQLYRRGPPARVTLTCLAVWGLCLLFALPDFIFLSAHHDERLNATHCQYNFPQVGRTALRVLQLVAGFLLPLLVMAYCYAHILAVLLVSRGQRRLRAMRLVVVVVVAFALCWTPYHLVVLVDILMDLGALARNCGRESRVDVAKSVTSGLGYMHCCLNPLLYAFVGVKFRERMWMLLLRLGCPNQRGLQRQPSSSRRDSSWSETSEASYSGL
Procedure: [^125I]CXCL11 radioligand displacement assay: Oxidative iodination. The CXCL11 protein (purchased from PeproTech as the mature form of isoform 1) was labeled in-house with the ^125I isotope (purchased from Perkin-Elmer, in 10 µM NaOH, pH 8-11) using the Chloramine-T method^36. CXCL11 was dissolved in 300 mM phosphate buffer, and 0.4 mCi ^125I was added to 0.6 nmol (10 µl) of the protein. 30 µl phosphate buffer supplemented with 30 mgl^-1 Chloramine-T was added slowly over a 5 min period while stirring, and the reaction was quenched by adding 400 µl H2O with 0.1% trifluoroacetic acid (TFA). The product was purified by reverse-phase HPLC, using a C18 column and a gradient from H2O with 0.1% TFA (buffer A) to acetonitrile with 0.1% TFA (buffer B). After allowing the passage of 8 mL flow-through at 20 % buffer B, CXCL11 is eluted by increasing buffer B to 50 % over a flow-volume of 40 mL, after which any possible remains of protein are eluted by further increasing buffer B to 80 % across 10 mL flow-through. The flow-through is collected in 1 mL aliquots, and the radioligand is identified in those aliquots by gamma radiation intensity, and verified with a preliminary competitive binding assay setup.
Cell culture and transfection,. Cos-7 cells expressing human CXCR3 (isoform 1) were used for binding assays. […]

CXCR3-PK2 = target: T2, CXCR3-PK2 (Homo sapiens, UniProt P49682); experiment: β-arrestin 2 recruitment assay (PathHunter, DiscoveRx), CXCR3-PK2 construct; format: cell-based; details: CXCR3-PK2; for CXCR3-PK2 pEC50 ± SEM: HEK293-T cells, PathHunter
T2 construct: expressed in transfected cells
T2 sequence (P49682 1-368): T1 sequence (P49682 1-368)
Procedure: (§1) β-arrestin 2 recruitment assay: The measurement of β-arrestin recruitment was performed utilizing the PathHunter assay purchased from DiscoveRx (DiscoveRx, Birmingham, U.K.) according to the manufacturer's protocol. HEK293 cells stably expressing β-gal enzyme acceptor were transiently transfected with the ProLink (PK1) tagged wildtype CXCR3 receptor using the TransIT-293 transfection reagent from Mirus (purchased from MoBiTec, Goettingen, Germany). The assay was carried out in 384-well plates containing 2000 cells in 20 µL. After incubation at 37°C (5% CO2, 95% relative humidity) overnight, various concentrations of test compounds or CXCL11 (prepared in PBS, pH 7.4, containing 0.20% BSA) were added and the incubation continued for 4 h. Detection mix was then added and incubated for further 60 min at room temperature. Chemiluminescence was determined with a microplate reader Clariostar (BMG labtech, Ortenberg, Germany).
The ability of the novel ligands according to the present invention to induce CXCR3-mediated β-arrestin 2 recruitment was investigated in the assay system PathHunter (DiscoveRx), which detects the recruitment of β-amestin 2 to the activated receptor using β-galactosidase (β-gal) enzyme fragment complementation. The inventors used two different ProLink tags, ProLink1 (PK1) and ProLink2 (PK2), of which PK2 has higher affinity for the enzyme acceptor to detect weak protein-protein interactions. The CXCR3-PK2 construct is readily able to detect the differences in the propensity of CXCL11 and CXCL10 to induce β-arrestin 2 recruitment at CXCR3. […] Table 3. Ability of the 46/VUF10661 based positive allosteric modulators to activate the CXCR3 as measured in the β-arrestin 2 recruitment assay (PathHunter, DiscoveRx).[a]
To investigate the efficacy of identified partial agonists in the assay format, the inventors used the CXCR3-PK2 construct, which is characterized by higher sensitivity to detect β-arrestin 2 recruitment. The compounds which appeared as weak partial agonists under CXCR3-PK1 conditions appeared as strong partial agonists under CXCR3-PK2 conditions with the efficacy increased up to 80% (Table 4). FAUC1036 reached the efficacy of 66%. […] Table 4. Ability of the compound 5 based positive allosteric modulators to activate the CXCR3 as measured in the β-arrestin 2 recruitment assay (PathHunter, DiscoveRx).[a]

CXCR3 = target: T3, CXCR3 (Homo sapiens, UniProt P49682); experiment: β-arrestin 2 recruitment with concomitant incubation of FAUC1036 and chemokine; format: cell-based
T3 construct: expressed in transfected cells; host or cells: HEK293 / HEK293T cells, stably transfected; membrane preparations
T3 sequence (P49682 1-368): T1 sequence (P49682 1-368)
Procedure: as §1
The effect of the β-arrestin 2 biased allosteric agonist FAUC1036 on the CXCL11 and CXCL10-induced β-arrestin 2 recruitment was estimated in a series of experiments where the HEK293T cells expressing CXCR3 were concomitantly incubated with FAUC1036 and chemokines CXCL11 or CXCL10 (Figure 3). […] These observations imply that FAUC1036 behaves as a functional negative allosteric modulator (NAM) in the presence of endogenous agonists in the β-arrestin 2 pathway.

CC(C)(C)OC(=O)N[C@@H](CCCCNC(=O)[C@@H]1Cc2ccccc2CN1C(=O)CCC(=O)c1ccccc1)C(=O)NCC(c1ccccc1)c1ccccc1 [Compound 11, Tert-butyl ((S)-1-((2,2-diphenylethyl)amino)-1-oxo-6-((S)-2-(4-oxo-4-phenylbutanoyl)-1,2,3,4-tertahydroisoquinoline-3-carboxamido)hexan-2-yl)carbamate]
effect on the binding affinity of CXCL11 on CXCR3 (human CXCR3 (isoform 1)): no effect on the binding affinity of CXCL11 on CXCR3
CXCR3-PK2 efficacy (%) (CXCR3-PK2; % of CXCL11 mediated effect, listed as 11/FAUC103 6): 66±8%
Emax (CXCR3-PK2; % of CXCL11 mediated effect, read-out: CXCR3-PK2 efficacy (%) (converted)): 66%
CXCR3-PK2 pEC50 ± SEM (CXCR3-PK2; listed as 11/FAUC103 6): 6.58±0.30
CXCR3-PK2 pEC50 ± SEM (CXCR3-PK2; listed as FAUC1036): 6.64 ± 0.30
influence on the efficacy of CXCL10-induced β-arrestin 2 recruitment (CXCR3; in the presence of CXCL10 (Figure 3B)): noticeable effect on the efficacy
influence on the efficacy of CXCL11-induced β-arrestin 2 recruitment (CXCR3; in the presence of CXCL11 (Figure 3A)): had not influence on the efficacy
